“Also recorded” adds a separate entry of the source.
How the values were obtained:
rat ovarian aromatase = target: T1, rat ovarian aromatase (Rattus norvegicus, UniProt P22443); test: in vivo effect on rat ovarian aromatase activity (3H-water method); details: for in vivo ovarian aromatase inactivation: Example 7, 50 mg/kg body weight/day, regularly cycling BUF/N rats, compared to sesame oil control; for suppression of the ovarian aromatase activity: 50 mg/kg body weight/day s.c. twice daily for four days, 4-day cycling BUF/N rats
T1 construct: from tissue; host or cells: ovaries of BUF/N inbred female rats, 105,000 x g precipitate of the homogenate
T1 sequence (P22443 1-508): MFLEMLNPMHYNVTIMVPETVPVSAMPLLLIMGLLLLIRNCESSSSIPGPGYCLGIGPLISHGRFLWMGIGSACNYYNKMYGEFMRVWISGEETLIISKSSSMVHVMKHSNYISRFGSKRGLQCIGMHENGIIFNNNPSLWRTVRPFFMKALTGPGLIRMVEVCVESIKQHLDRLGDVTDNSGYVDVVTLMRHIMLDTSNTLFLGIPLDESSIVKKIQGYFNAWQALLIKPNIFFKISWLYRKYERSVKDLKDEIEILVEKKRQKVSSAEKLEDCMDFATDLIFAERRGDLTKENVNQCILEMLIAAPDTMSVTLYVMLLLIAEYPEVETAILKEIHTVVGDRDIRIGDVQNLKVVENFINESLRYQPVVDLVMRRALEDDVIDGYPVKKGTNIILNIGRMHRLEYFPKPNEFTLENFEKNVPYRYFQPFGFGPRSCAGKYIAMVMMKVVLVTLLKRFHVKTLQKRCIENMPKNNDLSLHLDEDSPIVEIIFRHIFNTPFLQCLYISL
Method: 5α-DHNET (30 mg/ml sesame oil suspension) was injected s.c. twice daily for four days at a dose of 50 mg/kg body weight/day to BUF/N inbred female rats (50-80 days old) showing regular 4-day estrus cycles starting on the estrus day. The control group received injections of sesame oil in the same manner. Both ovaries were removed 3-4 hours after the final injection. The 105,000×g precipitate fraction of the ovarian homogenate was used for the aromatase assay. Aromatase activity was determined by the ^3 H-water method (F. L. Bellino, S. S. H. Gilani, S. S. Eng, Y. Osawa and W. L. Duax, Biochemistry, 15, 4730-4736 (1976)). The sedimented ovarian enzyme preparation was homogenized in 0.1 M phosphate buffer (pH 7.5) and incubated with [1β-^3 H, 4-^14 C]androstenedione (3.18×10^5 dpm ^3 H, 1.18×10^4 dpm ^14 C, 100.2 ng), NADPH (1 mg) and BSA (5 mg) in 0.1 M phosphate buffer (pH 7.5) in a total volume of 1.5 ml for 30 min at 37° C. Trichloroacetic acid solution (0.2 ml of 10% aqueous solution) was added to stop the enzyme reaction. Activated charcoal was added to the mixture and the spun supernatant was passed through a cotton plugged disposable pipet. The filtrate was counted for simultaneous ^3 H and ^14 C in a liquid scintillation spectrophotometer. The ^3 H-water released from the 1β-^3 H labeled androgen quantitatively corresponds to estrogen formation. The results of the in vivo aromatase suppression assay with 5α-DHNET, 6β-bromoandrostenedione (6β-BRA), and 6α-bromoandrostenedione (6α-BRA) are given in FIGS. 3, 4, and 5, respectively. 5α-DHNET suppressed 67% of the ovarian aromatase, whereas 6β-bromoandrostenedione suppressed 72% and 6α-bromoandrostenedione only an insignificant 10%.
A test of the acetate (C2) and n-butyrate (C4) on the in vivo effect on Ovarian Aromatase Activity was conducted. […] All procedures are the same as described in the above examples. […] The slightly better results obtained with the N-butyrate may be due to its higher solubility in sesame oil, indicating a higher retention in the body.

[1] = system: human placental aromatase; details: cited from earlier work; for concentration for inhibition of human placental aromatase in vitro: for 5α-DHNET a partial inhibition
[2] = system: NMU-induced breast carcinomas of BUF/N rats; test: effect on growth of NMU-induced breast carcinomas; assay type: in vivo, rat
Method: (§1) The animal model for human mammary carcinomas developed by Gullino et al. (P. M. Gullino, H. M. Pettigrew, and F. H. Grantham, J. Natl. Cancer Inst., 54, 401-414 (1975)) was used for this evaluation of 5α-DHNET.N-Nitrosomethylurea (NMU), wet with 3% acetic acid, was dissolved in distilled water (10 mg/ml) and given in three intravenous injections at a dose of 50 mg/kg body weight to BUF/N inbred female rats of 50 days of age on the first injection. The second injection was 4 weeks and the third injection was 8 weeks after the initial administration. The onset of tumors was monitored by daily visual inspection and by palpation of the mammary regions three times a week. The increase in tumor size was monitored by vernier caliper measurements of the subcutaneous mass. One-half the average of the longest and shortest tumor diameters was taken as the value of r in the formula 4/3 πr^3 used to estimate tumor volume. 5α-DHNET in sesame oil was given i.p. daily at a dose of 50 mg/kg body weight/day for 3 weeks to BUF/N female rats having at least one tumor, 2 cm or larger. The number and size of the rumors were monitored on 12 treated and 13 vehicle-only control animals. The mean initial volume of the tumors was 5.10 and 5.53 ml for the control and treated group, respectively. While the tumors in the control group grew very rapidly, growth arrest was clearly observed in 75% (9/12) of the treated group. The death rate was lower in the treated group (3/12 in 4 weeks) than in the control (5/13 in 3 weeks). […] Averaged relative tumor volume is compared in FIG. 7. This also indicates the suppression of tumor growth by the 5α-DHNET treatment. While 24 new tumors developed in 9 control rats in 3 weeks, only 7 developed in 11 treated rats.

[3] = system: NMU-induced breast carcinomas of BUF/N rats; test: effect on breast tumor incidence, protocol III; assay type: in vivo, rat
Method: The protocol was further modified to evaluate the generality of the effect of 5α-DHNET on breast carcinomas. […] Oophorectomy was also carried out at 3 weeks after the NMU injection. After 37 weeks of monitoring, the tumor incidence was 87%, 38%, and 19% for the control, 5α-DHNET,and OVX group, respectively. The average number of tumors per tumor carrying animal was 2.8, 1.5 and 1.0 for the central, 5α-DHNET, and OVX group, respectively.

[4] = rat, in vivo
SD rat (SPF) = test: minimum lethal dose in SD rat; assay type: in vivo
Method: For example, the minimum lethal dose of 5α-DHNET for SD rat (SPF) is greater than 5,000 mg/kg.

[5] = system: human placental aromatase; test: in vitro assay with human placental aromatase; assay type: biochemical; details: in vitro assays
Method: 5α-DHNET was previously found to be a very weak in vitro aromatase inhibitor (Y. Osawa, Y. Osawa, C. Yarborough & L. Borzynski, Biochem Soc. Transactions, 656-659 (1983)), requiring a 50 μM concentration for a partial inhibition of human placental aromatase in vitro.

[6] = system: NMU-induced breast carcinomas of BUF/N rats; test: effect on breast tumor incidence, protocol II; assay type: in vivo, rat
Method: The preventive and suppressive effect of 5α-DHNET on breast carcinomas was further examined in order to ascertain that this agent is effective under general conditions rather than limited to a specifically controlled protocol. Only a single dose of NMU was given to the BUF/N rats at 50th day of age and an oophorectomy was carried our at the 6th week after the NMU injection. The 5α-DHNET group received the agent for one week starting at the 6th week at a dose of 50 mg/kg body weight/day as given in FIG. 11. Monitoring was carried out as described in Example 4. After 41 weeks of observation, the tumor incidence was 65%, 33%, and 38% for the control, 5α-DHNET, and OVX group, respectively. The average number of tumors per tumor carrying rat was 2.6, 1.5, and 1.0 for the control, 5α-DHNET, and OVX group, respectively.

[7] = system: estrus cycle of BUF/N inbred female rats; test: effect on the rat estrus cycle; assay type: in vivo; details: for effect on the estrus cycle: single s.c. dose 50 mg/kg body weight on proestrus day
Method: BUF/N inbred female rats (50-80 days old) showing regular 4-day estrus cycles were selected by a daily vaginal smear test. A fine powder of the steroid sample was suspended in sesame oil (30 mg/ml) and injected subcutaneously on the proestrus day at a single dose of 50 mg/kg body weight. Vaginal smears were examined daily until normal estrus returned for at least three cycles. The results from the single injection of 5α-DHNET are given in FIG. 1 and those for 6β-bromoandrostenedione are given in FIG. 2 for comparison.

[8] = system: NMU-induced breast carcinomas of BUF/N rats; test: preventive effect on incidence of NMU-induced breast carcinoma, first protocol; assay type: in vivo, rat
Method: as §1
The preventive effect of 5α-DHNET to lower the incidence of breast carcinoma was assessed by use of the same animal model as in Example 3 but by modification of the administration protocol. The vehicle-only control was prepared as described in Example 3. Oophorectomy was carried out at the 4th week. 5α-DHNET at a dose of 50 mg/kg body weight/day was given i.p. daily for one week starting at the 4th week. The onset of tumors, their number and location in each animal were recorded daily. The results are given in FIGS. 9 and 10 and in Table 2. The control group developed tumors in 100% (16/16) of the animals by the 98th day after the first NMU injection. At this point tumor incidence for the 5α-DHNET treated and oophorectomized groups was 13% (2/16) and 38% (6/16), respectively. […] At the 180th day the death rate for the 5α-DHNET treated and oophorectomized group was 25% and 31%, respectively, compared to 69% for the control group. The mean latent period of tumor development was 72, 101, and 116 days for the control, OVX, and 5α-DHNET group, respectively.

C#C[C@]1(OC(C)=O)CC[C@H]2[C@@H]3CC[C@H]4CC(=O)CC[C@@H]4[C@H]3CC[C@@]21C [5α-DHNET Ac, 5α-DHNET acetate]
in vivo ovarian aromatase inactivation (rat ovarian aromatase): 68.2%

C#C[C@]1(OC(=O)CCC)CC[C@H]2[C@@H]3CC[C@H]4CC(=O)CC[C@@H]4[C@H]3CC[C@@]21C [5α-DHNET But, 5α-DHNET butyrate]
in vivo ovarian aromatase inactivation (rat ovarian aromatase): 79.4%

C#C[C@]1(O)CC[C@H]2[C@@H]3CC[C@H]4CC(=O)CC[C@@H]4[C@H]3CC[C@@]21C [5α-DHNET, 5α-dihydro-19-norethisterone]
concentration for inhibition of human placental aromatase in vitro [1]: 50 µM
in vitro aromatase inhibitory activity ([1]; previous in vitro studies): essentially inactive
effect on growth of breast carcinomas ([2]; 50 mg/kg body weight/day daily for three weeks): significantly suppressed the growth of breast carcinomas
animals with growth arrest of tumors ([2]; 50 mg/kg body weight/day i.p. for 3 weeks, 9/12 treated): 75%
death rate ([2]; 50 mg/kg body weight/day i.p. for 3 weeks, in 4 weeks): 3/12
initially observed tumors disappeared ([2]; 3 week period, 6/47): 13%
tumors regressed ([2]; 3 week period, 20/48): 42%
tumors growing ([2]; 3 week period, 28/48): 58%
Total No. of Tumors disappeared ([2]; 3 wk): 6
Total No. of Tumors growing ([2]; 3 wk): 28
Total No. of Tumors regressed ([2]; 3 wk): 20
share of responded animals maintained without a growth of tumors after stopping administration ([2]; another 3 weeks after stopping): approximately half
Total No. of Tumors 3 wk ([2]; end of 3 wk treatment, 11 rats): 48
Total No. of Tumors newly developed ([2]; in 3 weeks, 11 treated rats): 7
Total No. of Tumors start ([2]; start of treatment, 11 rats): 47
tumor incidence ([3]; after 37 weeks, treatment 3 weeks after single NMU dose): 38%
average number of tumors per tumor carrying animal ([3]; protocol III): 1.5
body weight compared to control rats [4]: did not show any significant difference of body weight from the control rats
minimum lethal dose (SD rat (SPF)): greater than 5,000 mg/kg
suppression of the ovarian aromatase activity (rat ovarian aromatase): 67%
in vivo ovarian aromatase inactivation (rat ovarian aromatase): 67.9%
potency as aromatase inhibitor relative to 6α- and 6β-bromoandrostenedione [5]: thousand-fold less potent
tumor incidence ([6]; after 41 weeks, single NMU dose, 50 mg/kg/day for one week from 6th week): 33%
average number of tumors per tumor carrying rat ([6]; protocol II): 1.5
animals with cessation of estrus cycles / animals tested ([7]; single s.c. dose 50 mg/kg body weight): 4/4
effect on the estrus cycle [7]: cessation of the estrus cycles for at least four cycles
tumor incidence ([8]; 98th day after first NMU injection, 50 mg/kg/day i.p. one week from 4th week, 2/16): 13%
death rate ([8]; 180th day after first NMU injection, 4/16): 25%
% Tumor Incidence ([8]; 180th day after first NMU injection, 8/16): 50%
effect on incidence of breast carcinoma and death rate ([8]; Examples 4-6, given at different times): significantly lower the incidence of breast carcinoma and the death rate as effectively as complete oophorectomy
Average No. of tumors per tumor-carrying rat ([8]; first protocol): 1.8
Mean Latent Period of tumor development ([8]; first protocol): 116 days

C[C@]12CCC(=O)C=C1[C@@H](Br)C[C@@H]1[C@@H]2CC[C@]2(C)C(=O)CC[C@@H]12 [6α-bromoandrostenedione, reference compound]
concentration for inhibition of human placental aromatase in vitro [1]: 0.0082 µM
suppression of the ovarian aromatase activity (rat ovarian aromatase): 10%

C[C@]12CCC(=O)C=C1[C@H](Br)C[C@@H]1[C@@H]2CC[C@]2(C)C(=O)CC[C@@H]12 [6β-bromoandrostenedione, reference compound]
concentration for inhibition of human placental aromatase in vitro [1]: 0.056 µM
suppression of the ovarian aromatase activity (rat ovarian aromatase): 72%
effect on the estrus cycle ([7]; 50 mg/kg): no effect on the cycle; also recorded: failed to affect the estrus cycle

— US4997827A, “Compositions containing 5-α-dihydro-19-norethisterone and derivatives thereof for in vivo inhibition of aromatase” (Medical Foundation of Buffalo, Inc., priority 1989, dated 1991)
